Where two headings read alike, the source gives them in different places.
Columns and labels:
[1] = for Content of nitrosamines: cocamidopropylamine oxide synthesis, additive 0,1% by weight on amido-amine; for inhibitory effect on the formation of nitrosamines: result in words, tertiary alkylamine oxide (cocamidopropylamine oxide) synthesis
Description: For the measurement, gas chromatography in combination with a thermal energy analyzer (GC-TEA) is used. In measurements using this technique, the so-called apparent total N-nitroso compounds (ATNC) are determined by a chemical denitrosation and detection of the released […] in µg/kg (ppb). This content is also determined by denitrosation of an N-nitrosodiisopropanolamine (NDiPLA) calibration standard.
(§1) To a three-neck flask of 1000 ml, demi-water and citric acid were added. The acid was added in order to keep the pH of the reaction mixture below 9. Subsequently, cocamidopropylamine and hydrogen peroxide were added. The reaction mixture was heated to a desired temperature of either 50 °C or 70 °C. Upon reaching the desired reaction temperature, sodium bicarbonate was added. The pH of the reaction mixture is maintained between 7,0 and 7,5. If necessary, NaOH is added.
(§2) In the examples described below, different additives were tested for their ability to inhibit the formation of nitrosamines. Each time, during the reaction, an amount of inhibitor was added which corresponds to 0,1% by weight of the amount of added amido-amine raw material.
The nitrosamine content was determined with the aid of a chemical denitrosation technique and measurement with a thermal energy analyzer. The detection limit of the method used was 50 µg total content of N-nitroso compounds/kg.

[2] = Synthesis tests of cocamidopropylamine oxide with candidate inhibitors: colour of the final product; format: physicochemical; conditions: additive 0,1% by weight on amido-amine
Description: as §1, §2

Row | Colour ([2]; Temp 50 °C) [Apha] | Compound | Content of nitrosamines ([1]; Temp 50 °C) [ppb] | Content of nitrosamines ([1]; Temp 70 °C) [ppb] | inhibitory effect on the formation of nitrosamines [1] | Colour ([2]; Temp 70 °C) [Apha]
1 | 27 | O=C(O)CN(CCN(CC(=O)O)CC(=O)O)CC(=O)O [EDTA, ethylenediaminetetraacetic acid] | 660 | 1550 | insufficiently able to inhibit the formation of nitrosamines | 37
2 | 27 | O=C(O)CN(CCN(CC(=O)O)CC(=O)O)CCN(CC(=O)O)CC(=O)O [DTPA Na, diethylene triamine pentaacetic acid] |  |  |  | 

Row | Compound | Colour ([2]; Temp 50 °C) [Apha] | Content of nitrosamines ([1]; Temp 50 °C) [ppb] | Content of nitrosamines ([1]; Temp 70 °C) [ppb] | inhibitory effect on the formation of nitrosamines [1] | Colour ([2]; Temp 70 °C) [Apha]
3 | O=P(O)(O)CN(CCN(CP(=O)(O)O)CP(=O)(O)O)CCN(CP(=O)(O)O)CP(=O)(O)O [DTPMP, diethylenetriamine penta(methylene phosphonic acid)] | 50 | 1637 | 765 | insufficiently able to inhibit the formation of nitrosamines | 24

Reference: patent EP3092214B1, “NITROSAMINE/NITRITE INHIBITION IN TERTIARY ALKYLAMINE OXIDE COMPOSITIONS” (EOC Surfactants N.V., priority 2014, dated 2015)
